{"source": "patent US20230389542A1", "about": "“USE OF [(1,5-DIPHENYL-1H-PYRAZOL-3-YL)OXY] ACETIC ACID DERIVATIVES AND THEIR SALTS AND COMPOSITIONS CONTAINING THEM, FOR REDUCING PHYTOTOXIC EFFECTS OF AGROCHEMICALS, IN PARTICULAR OF HERBICIDES, IN USEFUL PLANTS AND CROP PLANTS” (BAYER AKTIENGESELLSCHAFT, priority 2020, published 2023)", "key": {"[1]": {"test_system": "summer wheat (TRZAS; cv. Triso)", "test": "Relative action (efficacy code): reduction of damage by mesosulfuron-methyl on summer wheat", "type": "in vivo", "design": "key: 0: no reduction in damage (appearance corresponding to the herbicide control); 1: slight reduction in damage; 2: distinct reduction in damage; 3: significant reduction in damage; 4: complete reduction in damage (appearance corresponding to the untreated control)", "details": "visual, 9-13 days after application", "experimental": "2.3 Relative Action of Selected Compounds of the Invention Using the Example of Reduction of Damage by Mesosulfuron-Methyl on Summer Wheat (TRZAS) The seeds of the crop plants to be treated are laid out in sandy loam in plastic pots (diameter μ4 cm), covered with soil and grown in a greenhouse under good conditions for germination and growth. The trial plants were treated at the early leaf stage (BBCH10-BBCH12). In the course of this, the inventive compounds of the general formula (I) formulated in the form of wettable powders (WP) were sprayed onto the above-ground parts of the plants as an aqueous suspension with a water application rate corresponding to 800 l/ha with addition of wetting agent (e.g. 0.2% Genapol-LRO or 0.2% Mero) in the specified dose. This was followed by the application of the herbicide. For this purpose, mesosulfuron-methyl, formulated in the form of water-dispersible granules (WG), was sprayed onto the above-ground parts of the plants in the form of an aqueous dispersion with a water application rate corresponding to 800 l/ha with addition of wetting agent (e.g. 0.2% Genapol-LRO or 1 l/ha Biopower) in a dose of 40-60 g/ha. The dose of the herbicide was chosen here such that it causes visually apparent damage (min. 30%, max. 75%) compared to untreated crop plants at the evaluation time on a control group of crop plants without safener treatment that were included in the same trial. After application, the plants were cultivated under good growth conditions in a greenhouse. 9-13 days after application, the efficacy of the test compounds was assessed visually. For this purpose, the appearance of the plants treated with the test compound and herbicide was compared to the corresponding herbicide controls (without safener; with clearly visible damage) and the untreated controls (without damage). The damage-reducing effect of the test compounds was expressed here in graded efficacy codes according to the following scheme: • 0: no reduction in damage (appearance corresponding to the herbicide control) • 1: slight reduction in damage • 2: distinct reduction in damage • 3: significant reduction in damage • 4: complete reduction in damage (appearance corresponding to the untreated control) The trials show clear efficacy of the inventive compounds selected by way of example with regard to the reduction in damage to the summer wheat crop plant (TRZAS; cv. Triso) caused by the herbicide mesosulfuron-methyl: […]"}, "[2]": {"test_system": "summer barley (HORVS; cv. Montoya)", "test": "Relative action (efficacy code): reduction of damage by mesosulfuron-methyl on summer barley", "type": "in vivo", "design": "key: 0: no reduction in damage (appearance corresponding to the herbicide control); 1: slight reduction in damage; 2: distinct reduction in damage; 3: significant reduction in damage; 4: complete reduction in damage (appearance corresponding to the untreated control)", "details": "visual, 9-13 days after application, 2 repeats coded separately", "experimental": "2.4 Relative Action of Selected Compounds of the Invention Using the Example of Reduction of Damage by Mesosulfuron-Methyl on Summer Barley (HORVS) The seeds of the crop plants to be treated are laid out in sandy loam in plastic pots (diameter˜4 cm), covered with soil and grown in a greenhouse under good conditions for germination and growth. The trial plants were treated at the early leaf stage (BBCH10-BBCH12). In the course of this, the inventive compounds of the general formula (I) formulated in the form of wettable powders (WP) were sprayed onto the above-ground parts of the plants as an aqueous suspension with a water application rate corresponding to 800 l/ha with addition of wetting agent (e.g. 0.2% Genapol-LRO or 0.2% Mero) in the specified dose. This was followed by the application of the herbicide. For this purpose, mesosulfuron-methyl, formulated in the form of water-dispersible granules (WG), was sprayed onto the above-ground parts of the plants in the form of an aqueous dispersion with a water application rate corresponding to 800 l/ha with addition of wetting agent (e.g. 0.2% Genapol-LRO or 1 l/ha Biopower) in a dose of 40-60 g/ha. The dose of the herbicide was chosen here such that it causes visually apparent damage (min. 30%, max. 75%) compared to untreated crop plants at the evaluation time on a control group of crop plants without safener treatment that were included in the same trial. After application, the plants were cultivated under good growth conditions in a greenhouse. 9-13 days after application, the efficacy of the test compounds was assessed visually. For this purpose, the appearance of the plants treated with the test compound and herbicide was compared to the corresponding herbicide controls (without safener; with clearly visible damage) and the untreated controls (without damage). The damage-reducing effect of the test compounds was expressed here separately for 2 repeats in graded efficacy codes according to the following scheme: • 0: no reduction in damage (appearance corresponding to the herbicide control) • 1: slight reduction in damage • 2: distinct reduction in damage • 3: significant reduction in damage • 4: complete reduction in damage (appearance corresponding to the untreated control) The trials show clear efficacy of the inventive compounds selected by way of example with regard to the reduction in damage to the summer barley crop plant (HORVS; cv. Montoya) caused by the herbicide mesosulfuron-methyl: […]"}, "[3]": {"details": "safener 100 g/ha + mesosulfuron-methyl 40-60 g/ha"}, "[4]": {"details": "safener 500 g/ha + mesosulfuron-methyl 40-60 g/ha"}}}
{"molecule": "CCOC(=O)COc1cc(-c2ccc(F)cc2)n(-c2ccc(Cl)cc2Cl)n1", "note": "[I.11-32]", "values": [{"measurement": "Efficacy of the safener (efficacy code)", "setting": "[1]; [3]", "value": 2}, {"measurement": "Efficacy of the safener (efficacy code)", "setting": "[1]; [4]", "value": 2}, {"measurement": "Efficacy of the safener (efficacy code)", "setting": "[2]; [4]", "value": 2}]}
{"molecule": "COC(=O)COc1cc(-c2ccc(F)cc2F)n(-c2ccc(Cl)cc2F)n1", "note": "[I.40-49]", "values": [{"measurement": "Efficacy of the safener (efficacy code)", "setting": "[1]; [3]", "value": 3}, {"measurement": "Efficacy of the safener (efficacy code)", "setting": "[1]; [4]", "value": 3}, {"measurement": "Efficacy of the safener (efficacy code)", "setting": "[2]; [3]", "value": 2}, {"measurement": "Efficacy of the safener (efficacy code)", "setting": "[2]; [4]", "value": "2-3"}]}
{"molecule": "CCOC(=O)COc1cc(-c2ccc(F)cc2F)n(-c2ccc(Cl)cc2F)n1", "note": "[I.41-49]", "values": [{"measurement": "Efficacy of the safener (efficacy code)", "setting": "[1]; [3]", "value": 3}, {"measurement": "Efficacy of the safener (efficacy code)", "setting": "[1]; [4]", "value": 4}, {"measurement": "Efficacy of the safener (efficacy code)", "setting": "[2]; [3]", "value": 2}, {"measurement": "Efficacy of the safener (efficacy code)", "setting": "[2]; [4]", "value": 2}]}
{"molecule": "O=C(O)COc1cc(-c2ccc(F)cc2F)n(-c2ccc(Cl)cc2F)n1", "note": "[I.42-49]", "values": [{"measurement": "Efficacy of the safener (efficacy code)", "setting": "[1]; [3]", "value": 3}, {"measurement": "Efficacy of the safener (efficacy code)", "setting": "[1]; [4]", "value": 4}, {"measurement": "Efficacy of the safener (efficacy code)", "setting": "[2]; [3]", "value": "2-3"}, {"measurement": "Efficacy of the safener (efficacy code)", "setting": "[2]; [4]", "value": 3}]}
{"molecule": "CCOC(=O)COc1cc(-c2ccc(Cl)cc2F)n(-c2ccc(F)cc2Cl)n1", "note": "[I.47-48]", "values": [{"measurement": "Efficacy of the safener (efficacy code)", "setting": "[1]; [3]", "value": 3}, {"measurement": "Efficacy of the safener (efficacy code)", "setting": "[1]; [4]", "value": 4}, {"measurement": "Efficacy of the safener (efficacy code)", "setting": "[2]; [3]", "value": 2}, {"measurement": "Efficacy of the safener (efficacy code)", "setting": "[2]; [4]", "value": 3}]}
{"molecule": "CCOC(=O)COc1cc(-c2ccc(Cl)cc2F)n(-c2ccc(Cl)cc2F)n1", "note": "[I.47-49]", "values": [{"measurement": "Efficacy of the safener (efficacy code)", "setting": "[1]; [4]", "value": 3}, {"measurement": "Efficacy of the safener (efficacy code)", "setting": "[2]; [3]", "value": 2}, {"measurement": "Efficacy of the safener (efficacy code)", "setting": "[2]; [4]", "value": 3}]}
{"molecule": "CCOC(=O)COc1cc(-c2ccc(F)cc2Cl)n(-c2ccc(Cl)cc2F)n1", "note": "[I.50-49]", "values": [{"measurement": "Efficacy of the safener (efficacy code)", "setting": "[1]; [3]", "value": 2}, {"measurement": "Efficacy of the safener (efficacy code)", "setting": "[1]; [4]", "value": 3}, {"measurement": "Efficacy of the safener (efficacy code)", "setting": "[2]; [3]", "value": "2-3"}, {"measurement": "Efficacy of the safener (efficacy code)", "setting": "[2]; [4]", "value": 3}]}
